# Patent US20250215012A1, “IKZF2 DEGRADERS AND USES THEREOF” (REGENTS OF THE UNIVERSITY OF MICHIGAN, priority 2022, published 2025)
# Molecular target: IKZF2 (Homo sapiens (Human), UniProt Q96SW2+Q9UKS7)
# Test: IKZF2 HiBiT Assay (Jurkat-IKZF2-HiBiT cell line)
# Assay type: cell-based
# Settings: Jurkat-IKZF2-HiBiT cells, 24 hours; for DC50: read-out: HiBit assay degradation analysis DC50; for Dmax: read-out: HiBit assay degradation analysis Dmax
# How it was run: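 Jurkat cells carrying HiBiT-tagged IKZF2 were exposed to serially diluted compound for 24 h at 37 °C. Remaining IKZF2 was measured by Nano-Glo HiBiT lytic luminescence after 10-20 min at room temperature. Signal was normalized to DMSO, and IC50 came from a four-parameter variable-slope fit.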
# Chain of IKZF2 (Q9UKS7 whole entry): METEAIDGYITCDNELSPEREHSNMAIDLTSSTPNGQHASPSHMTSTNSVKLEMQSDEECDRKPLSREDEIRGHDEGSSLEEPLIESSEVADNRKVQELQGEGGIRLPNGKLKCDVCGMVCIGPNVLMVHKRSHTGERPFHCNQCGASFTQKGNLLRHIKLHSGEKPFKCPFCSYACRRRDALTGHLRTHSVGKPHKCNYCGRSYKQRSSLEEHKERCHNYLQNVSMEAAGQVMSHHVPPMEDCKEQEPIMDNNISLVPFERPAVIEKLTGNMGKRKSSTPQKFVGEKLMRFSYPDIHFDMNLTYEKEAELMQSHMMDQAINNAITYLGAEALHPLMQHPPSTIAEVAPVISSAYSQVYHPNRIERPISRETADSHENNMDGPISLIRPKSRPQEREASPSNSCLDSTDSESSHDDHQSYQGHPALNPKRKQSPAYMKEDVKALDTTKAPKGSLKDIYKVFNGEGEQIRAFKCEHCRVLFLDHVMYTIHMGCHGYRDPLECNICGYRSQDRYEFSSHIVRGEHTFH
# Chain of IKZF2 (Q96SW2 whole entry): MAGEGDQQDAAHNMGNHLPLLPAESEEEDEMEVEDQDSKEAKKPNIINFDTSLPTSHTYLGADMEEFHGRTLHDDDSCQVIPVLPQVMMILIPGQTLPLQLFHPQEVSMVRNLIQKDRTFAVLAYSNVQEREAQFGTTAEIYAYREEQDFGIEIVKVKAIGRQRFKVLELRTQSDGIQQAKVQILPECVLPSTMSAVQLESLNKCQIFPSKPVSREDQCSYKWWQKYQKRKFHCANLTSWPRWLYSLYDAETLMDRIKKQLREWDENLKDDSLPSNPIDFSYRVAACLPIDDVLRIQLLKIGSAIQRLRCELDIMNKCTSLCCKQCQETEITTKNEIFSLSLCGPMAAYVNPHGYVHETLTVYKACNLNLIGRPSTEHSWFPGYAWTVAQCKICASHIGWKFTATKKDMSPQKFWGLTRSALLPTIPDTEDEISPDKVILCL
# Chain of IKZF2 (Q16531 whole entry partner): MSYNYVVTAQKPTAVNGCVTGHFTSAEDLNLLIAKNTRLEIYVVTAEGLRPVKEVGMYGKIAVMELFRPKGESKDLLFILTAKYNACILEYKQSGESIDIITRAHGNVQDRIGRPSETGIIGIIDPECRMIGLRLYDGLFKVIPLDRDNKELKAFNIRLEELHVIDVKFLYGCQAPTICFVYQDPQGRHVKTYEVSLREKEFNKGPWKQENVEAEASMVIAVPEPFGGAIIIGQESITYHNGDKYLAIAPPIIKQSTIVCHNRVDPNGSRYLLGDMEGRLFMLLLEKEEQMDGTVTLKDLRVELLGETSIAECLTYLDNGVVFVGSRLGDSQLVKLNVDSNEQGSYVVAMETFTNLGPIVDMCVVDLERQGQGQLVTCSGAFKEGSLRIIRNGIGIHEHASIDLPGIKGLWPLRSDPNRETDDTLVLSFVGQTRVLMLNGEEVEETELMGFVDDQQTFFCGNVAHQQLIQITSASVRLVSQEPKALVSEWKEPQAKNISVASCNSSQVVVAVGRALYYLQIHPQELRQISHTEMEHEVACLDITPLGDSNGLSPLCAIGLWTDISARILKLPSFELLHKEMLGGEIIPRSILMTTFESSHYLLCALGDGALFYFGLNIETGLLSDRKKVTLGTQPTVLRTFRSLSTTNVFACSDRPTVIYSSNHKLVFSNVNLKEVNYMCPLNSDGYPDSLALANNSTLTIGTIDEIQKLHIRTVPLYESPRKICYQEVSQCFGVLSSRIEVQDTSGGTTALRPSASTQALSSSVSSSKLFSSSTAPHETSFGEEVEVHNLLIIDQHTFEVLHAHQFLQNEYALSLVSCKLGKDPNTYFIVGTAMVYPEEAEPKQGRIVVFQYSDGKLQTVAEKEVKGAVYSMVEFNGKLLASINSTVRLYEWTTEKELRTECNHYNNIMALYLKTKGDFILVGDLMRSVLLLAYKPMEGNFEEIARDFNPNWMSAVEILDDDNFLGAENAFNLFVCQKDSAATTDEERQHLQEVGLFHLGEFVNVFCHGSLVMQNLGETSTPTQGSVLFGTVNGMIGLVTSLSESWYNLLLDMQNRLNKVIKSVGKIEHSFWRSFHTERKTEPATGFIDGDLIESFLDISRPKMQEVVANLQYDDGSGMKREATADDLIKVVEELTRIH
structure (smiles),measurement,value
"O=C1CCC(N2Cc3c(ccc4c3OCC43CCN(Cc4cnn5c4CCCC5)CC3)C2=O)C(=O)N1 (stereo not drawn) [Compound A245, 3-(6-oxo-1′-((4,5,6,7-tetrahydropyrazolo[1,5-a]pyridin-3-yl)methyl)-6,8-dihydro-2H,7H-spiro[furo[2,3-e]isoindole-3,4′-piperidin]-7-yl)piperidine-2,6-dione]",DC50,200 to 500 nM
same,Dmax,40 to 60%
"O=C1CCC(N2Cc3c(ccc4c3OCC43CCN(CC4(c5ccccc5)CC4)CC3)C2=O)C(=O)N1 (stereo not drawn) [Compound A333, 3-(6-oxo-1′-((1-phenylcyclopropyl)methyl)-6,8-dihydro-2H,7H-spiro[furo[2,3-e]isoindole-3,4′-piperidin]-7-yl)piperidine-2,6-dione]",DC50,> 500 nM
same,Dmax,40 to 60%
"O=C1CCC(N2Cc3c(ccc4c3OCC43CCN(Cc4cnn(-c5ccccc5F)c4)CC3)C2=O)C(=O)N1 (stereo not drawn) [Compound A310, 3-(1′-((1-(2-fluorophenyl)-1H-pyrazol-4-yl)methyl)-6-oxo-6,8-dihydro-2H,7H-spiro[furo[2,3-e]isoindole-3,4′-piperidin]-7-yl)piperidine-2,6-dione]",DC50,> 500 nM
same,Dmax,< 40%
"O=C1CC[C@H](N2Cc3c(ccc4c3OCC43CCN(Cc4cnn(S(=O)(=O)c5cccc(Cl)c5F)c4)CC3)C2=O)C(=O)N1 [Compound A357, (S)-3-(1′-((1-((3-chloro-2-fluorophenyl)sulfonyl)-1H-pyrazol-4-yl)methyl)-6-oxo-6,8-dihydro-2H,7H-spiro[furo[2,3-e]isoindole-3,4′-piperidin]-7-yl)piperidine-2,6-dione]",Dmax,60 to 80%
"O=C1CCC(N2Cc3c(ccc4c3OCC43CCN(Cc4cccc5ccoc45)CC3)C2=O)C(=O)N1 (stereo not drawn) [Compound A115, 3-(1′-(benzofuran-7-ylmethyl)-6-oxo-6,8-dihydro-2H,7H-spiro[furo[2,3-e]isoindole-3,4′-piperidin]-7-yl)piperidine-2,6-dione]",DC50,50 to 200 nM
same,Dmax,60 to 80%
"COCCn1cc(-c2cccc(CN3CCC4(CC3)COc3c4ccc4c3CN([C@H]3CCC(=O)NC3=O)C4=O)c2)cn1 [Compound A286, (S)-3-(1′-(3-(1-(2-methoxyethyl)-1H-pyrazol-4-yl)benzyl)-6-oxo-6,8-dihydro-2H,7H-spiro[furo[2,3-e]isoindole-3,4′-piperidin]-7-yl)piperidine-2,6-dione]",DC50,50 to 200 nM
same,Dmax,60 to 80%
O=C1CCC(N2Cc3c(ccc4c3OCC43CCN(Cc4ccn5ccnc5c4)CC3)C2=O)C(=O)N1 (stereo not drawn) [Compound A78],DC50,200 to 500 nM
same,Dmax,40 to 60%
"O=C1CCC(N2Cc3c(ccc4c3OCC43CCN(Cc4cnn(S(=O)(=O)c5ccccc5)c4)CC3)C2=O)C(=O)N1 (stereo not drawn) [Compound A336, 3-(6-oxo-1′-((1-(phenylsulfonyl)-1H-pyrazol-4-yl)methyl)-6,8-dihydro-2H,7H-spiro[furo[2,3-e]isoindole-3,4′-piperidin]-7-yl)piperidine-2,6-dione]",DC50,> 500 nM
same,Dmax,40 to 60%
"Cc1ccc(C(=O)Nc2cccc(CN3CCC4(CC3)OCc3c4ccc4c3CN(C3CCC(=O)NC3=O)C4=O)c2)cc1 (stereo not drawn) [Compound A263, N-(3-((7-(2,6-dioxopiperidin-3-yl)-6-oxo-1,6,7,8-tetrahydrospiro[furo[3,4-e]isoindole-3,4′-piperidin]-1′-yl)methyl)phenyl)-4-methylbenzamide]",DC50,< 50 nM
same,Dmax,60 to 80%
"O=C1CCC(N2Cc3c(ccc4c3OCC43CCN(Cc4cccc(Oc5ccccc5)c4)CC3)C2=O)C(=O)N1 (stereo not drawn) [Compound A86, 3-(6-oxo-1′-(3-phenoxybenzyl)-6,8-dihydro-2H,7H-spiro[furo[2,3-e]isoindole-3,4′-piperidin]-7-yl)piperidine-2,6-dione]",DC50,> 500 nM
same,Dmax,40 to 60%
"O=C1CCC(N2Cc3c(ccc4c3OCC43CCN(Cc4cnn(S(=O)(=O)c5ccc(F)cc5)c4)CC3)C2=O)C(=O)N1 [Compound A354, (S)-3-(1′-((1-((4-fluorophenyl)sulfonyl)-1H-pyrazol-4-yl)methyl)-6-oxo-6,8-dihydro-2H,7H-spiro[furo[2,3-e]isoindole-3,4′-piperidin]-7-yl)piperidine-2,6-dione]",DC50,> 500 nM
"CC(C)(O)Cn1cc(-c2cccc(CN3CCC4(CC3)COc3c4ccc4c3CN([C@H]3CCC(=O)NC3=O)C4=O)c2)cn1 [Compound A292, (S)-3-(1′-(3-(1-(2-hydroxy-2-methylpropyl)-1H-pyrazol-4-yl)benzyl)-6-oxo-6,8-dihydro-2H,7H-spiro[furo[2,3-e]isoindole-3,4′-piperidin]-7-yl)piperidine-2,6-dione]",DC50,< 50 nM
same,Dmax,60 to 80%
"CCOc1cccc(CN2CCC3(CC2)COc2c3ccc3c2CN(C2CCC(=O)NC2=O)C3=O)n1 (stereo not drawn) [Compound A252, 3-(1′-((6-ethoxypyridin-2-yl)methyl)-6-oxo-6,8-dihydro-2H,7H-spiro[furo[2,3-e]isoindole-3,4′-piperidin]-7-yl)piperidine-2,6-dione]",DC50,> 500 nM
same,Dmax,< 40%
"O=C1CC[C@H](N2Cc3c(ccc4c3OCC43CCN(Cc4cccc(-c5cnn([C@H]6CCOC6)c5)c4)CC3)C2=O)C(=O)N1 [Compound A269, (S)-3-(6-oxo-1′-(3-(1-((S)-tetrahydrofuran-3-yl)-1H-pyrazol-4-yl)benzyl)-6,8-dihydro-2H,7H-spiro[furo[2,3-e]isoindole-3,4′-piperidin]-7-yl)piperidine-2,6-dione]",DC50,50 to 200 nM
same,Dmax,60 to 80%
"O=C1CCC(N2Cc3c(ccc4c3OCC43CCN(Cc4cccc5c(F)cccc45)CC3)C2=O)C(=O)N1 (stereo not drawn) [Compound A35, 3-(1′-((5-fluoronaphthalen-1-yl)methyl)-6-oxo-6,8-dihydro-2H,7H-spiro[furo[2,3-e]isoindole-3,4′-piperidin]-7-yl)piperidine-2,6-dione]",DC50,< 50 nM
same,Dmax,> 80%
"O=C1CCC(N2Cc3c(ccc4c3OCC43CCN(CC4CCC(F)(F)CC4)CC3)C2=O)C(=O)N1 (stereo not drawn) [Compound A17, 3-(1′-((4,4-difluorocyclohexyl)methyl)-6-oxo-6,8-dihydro-2H,7H-spiro[furo[2,3-e]isoindole-3,4′-piperidin]-7-yl)piperidine-2,6-dione]",DC50,> 500 nM
same,Dmax,40 to 60%
"O=C1CCC(N2Cc3c(ccc4c3OCC43CCN(Cc4csc(-c5ccccc5)n4)CC3)C2=O)C(=O)N1 (stereo not drawn) [Compound A82, 3-(6-oxo-1′-((2-phenylthiazol-4-yl)methyl)-6,8-dihydro-2H,7H-spiro[furo[2,3-e]isoindole-3,4′-piperidin]-7-yl)piperidine-2,6-dione]",DC50,> 500 nM
same,Dmax,< 40%
"O=C1CC[C@H](N2Cc3c(ccc4c3OCC43CCN(Cc4cnn(S(=O)(=O)c5ccc(F)cc5)c4)CC3)C2=O)C(=O)N1 [Compound A354, (S)-3-(1′-((1-((4-fluorophenyl)sulfonyl)-1H-pyrazol-4-yl)methyl)-6-oxo-6,8-dihydro-2H,7H-spiro[furo[2,3-e]isoindole-3,4′-piperidin]-7-yl)piperidine-2,6-dione]",Dmax,40 to 60%
"O=C1CCC(N2Cc3c(ccc4c3OCC43CCN(CC4CCCCC4)CC3)C2=O)C(=O)N1 (stereo not drawn) [Compound A7, 3-(1′-(cyclohexylmethyl)-6-oxo-6,8-dihydro-2H,7H-spiro[furo[2,3-e]isoindoline-3,4′-piperidin]-7-yl)piperidine-2,6-dione]",DC50,> 500 nM
same,Dmax,< 40%
"O=C1CCC(N2Cc3c(ccc4c3OCC43CCN(Cc4cccc5c4COC5)CC3)C2=O)C(=O)N1 (stereo not drawn) [Compound A113, 3-(1′-((1,3-dihydroisobenzofuran-4-yl)methyl)-6-oxo-6,8-dihydro-2H,7H-spiro[furo[2,3-e]isoindole-3,4′-piperidin]-7-yl)piperidine-2,6-dione]",DC50,< 50 nM
same,Dmax,60 to 80%
"O=C1CCC(N2Cc3c(ccc4c3OCC43CCN(Cc4ccc(C5CC5)cc4)CC3)C2=O)C(=O)N1 (stereo not drawn) [Compound A205, 3-(1′-(4-cyclopropylbenzyl)-6-oxo-6,8-dihydro-2H,7H-spiro[furo[2,3-e]isoindole-3,4′-piperidin]-7-yl)piperidine-2,6-dione]",DC50,200 to 500 nM
same,Dmax,40 to 60%
"O=C1CCC(N2Cc3c(ccc4c3OCC43CCN(Cc4ccc(C(F)(F)F)cc4)CC3)C2=O)C(=O)N1 (stereo not drawn) [Compound A194, 3-(6-oxo-1′-(4-(trifluoromethyl)benzyl)-6,8-dihydro-2H,7H-spiro[furo[2,3-e]isoindole-3,4′-piperidin]-7-yl)piperidine-2,6-dione]",DC50,> 500 nM
same,Dmax,< 40%
"O=C1CCC(N2Cc3c(ccc4c3OCC43CCN(Cc4cccc(-c5ccccc5)c4)CC3)C2=O)C(=O)N1 (stereo not drawn) [Compound A102, 3-(1′-([1,1′-biphenyl]-3-ylmethyl)-6-oxo-6,8-dihydro-2H,7H-spiro[furo[2,3-e]isoindole-3,4′-piperidin]-7-yl)piperidine-2,6-dione]",DC50,200 to 500 nM
same,Dmax,40 to 60%
O=C1CCC(N2Cc3c(ccc4c3OCC43CCN(Cc4ccc5nccn5c4)CC3)C2=O)C(=O)N1 (stereo not drawn) [Compound A79],DC50,> 500 nM
same,Dmax,< 40%
"COCCn1cc2cc(CN3CCC4(CC3)COc3c4ccc4c3CN(C3CCC(=O)NC3=O)C4=O)ccc2n1 (stereo not drawn) [Compound A341, 3-(1′-((2-(2-methoxyethyl)-2H-indazol-5-yl)methyl)-6-oxo-6,8-dihydro-2H,7H-spiro[furo[2,3-e]isoindole-3,4′-piperidin]-7-yl) piperidine-2,6-dione]",DC50,> 500 nM
same,Dmax,< 40%
"CCOc1cccc(CN2CCC3(CC2)COc2c3ccc3c2CN(C2CCC(=O)NC2=O)C3=O)c1 (stereo not drawn) [Compound A92, 3-(1′-(3-ethoxybenzyl)-6-oxo-6,8-dihydro-2H,7H-spiro[furo[2,3-e]isoindole-3,4′-piperidin]-7-yl)piperidine-2,6-dione]",DC50,50 to 200 nM
same,Dmax,40 to 60%
"CS(=O)(=O)Nc1cccc(CN2CCC3(CC2)COc2c3ccc3c2CN(C2CCC(=O)NC2=O)C3=O)c1 (stereo not drawn) [Compound A159, N-(3-((7-(2,6-dioxopiperidin-3-yl)-6-oxo-7,8-dihydro-2H,6H-spiro[furo[2,3-e]isoindole-3,4′-piperidin]-1′-yl)methyl)phenyl) methanesulfonamide]",DC50,> 500 nM
same,Dmax,40 to 60%
